Data published in paper PMC11277489, “Novel Piperazine Derivatives of Vindoline as Anticancer Agents” (International Journal of Molecular Sciences, 2024).
Read-outs that look alike come from different tables or passages of the source.

Key:
Type in all cases: cell-based
CCRF-CEM = assay: NCI60 five-dose screen, Leukemia; details: Homo sapiens, Leukemia, five-dose screen, read-out: GI50
MOLT-4 = assay: NCI60 five-dose screen, Leukemia; details: Homo sapiens; MOLT-4, Leukemia; five-dose screen; read-out: GI50
RPMI-8226 = assay: NCI60 five-dose screen, Leukemia; details: Homo sapiens; RPMI-8226, Leukemia; five-dose screen; read-out: GI50
SR = assay: NCI60 five-dose screen, Leukemia; details: Homo sapiens, Leukemia, five-dose screen, read-out: GI50
A549/ATCC = assay: NCI60 five-dose screen, Non-small Cell Lung Cancer; details: Homo sapiens; A549/ATCC, Non-small Cell Lung Cancer; five-dose screen; read-out: GI50
HOP-62 = assay: NCI60 five-dose screen, Non-small Cell Lung Cancer; details: Homo sapiens; HOP-62, Non-small Cell Lung Cancer; five-dose screen; read-out: GI50
NCI-H322M = assay: NCI60 five-dose screen, Non-small Cell Lung Cancer; details: Homo sapiens, Non-small Cell Lung Cancer, five-dose screen, read-out: GI50
COLO 205 = assay: NCI60 five-dose screen, Colon Cancer; details: Homo sapiens; COLO 205, Colon Cancer; five-dose screen; read-out: GI50
HCT-116 = assay: NCI60 five-dose screen, Colon Cancer; details: Homo sapiens; HCT-116, Colon Cancer; five-dose screen; read-out: GI50
KM12 = assay: NCI60 five-dose screen, Colon Cancer; details: Homo sapiens; KM12, Colon Cancer; five-dose screen; read-out: GI50
SW-620 = assay: NCI60 five-dose screen, Colon Cancer; details: Homo sapiens; SW-620, Colon Cancer; five-dose screen; read-out: GI50
SF-295 = assay: NCI60 five-dose screen, CNS Cancer; details: Homo sapiens; SF-295, CNS Cancer; five-dose screen; read-out: GI50
SF-539 = assay: NCI60 five-dose screen, CNS Cancer; details: Homo sapiens; SF-539, CNS Cancer; five-dose screen; read-out: GI50
SNB-19 = assay: NCI60 five-dose screen, CNS Cancer; details: Homo sapiens; SNB-19, CNS Cancer; five-dose screen; read-out: GI50
M14 = assay: NCI60 five-dose screen, Melanoma; details: Homo sapiens; M14, Melanoma; five-dose screen; read-out: GI50
SK-MEL-2 = assay: NCI60 five-dose screen, Melanoma; details: Homo sapiens; SK-MEL-2, Melanoma; five-dose screen; read-out: GI50
SK-MEL-28 = assay: NCI60 five-dose screen, Melanoma; details: Homo sapiens; SK-MEL-28, Melanoma; five-dose screen; read-out: GI50
UACC-62 = assay: NCI60 five-dose screen, Melanoma; details: Homo sapiens; UACC-62, Melanoma; five-dose screen; read-out: GI50
OVCAR-3 = assay: NCI60 five-dose screen, Ovarian Cancer; details: Homo sapiens; OVCAR-3, Ovarian Cancer; five-dose screen; read-out: GI50
OVCAR-5 = assay: NCI60 five-dose screen, Ovarian Cancer; details: Homo sapiens; OVCAR-5, Ovarian Cancer; five-dose screen; read-out: GI50
SK-OV-3 = assay: NCI60 five-dose screen, Ovarian Cancer; details: Homo sapiens; SK-OV-3, Ovarian Cancer; five-dose screen; read-out: GI50
786–0 = assay: NCI60 five-dose screen, Renal Cancer; details: Homo sapiens; 786–0, Renal Cancer; five-dose screen; read-out: GI50
A498 = assay: NCI60 five-dose screen, Renal Cancer; details: Homo sapiens; A498, Renal Cancer; five-dose screen; read-out: GI50
ACHN = assay: NCI60 five-dose screen, Renal Cancer; details: Homo sapiens, Renal Cancer, five-dose screen, read-out: GI50
RXF 393 = assay: NCI60 five-dose screen, Renal Cancer; details: Homo sapiens, RXF 393, Renal Cancer
SN12C = assay: NCI60 five-dose screen, Renal Cancer; details: Homo sapiens, Renal Cancer, five-dose screen, read-out: GI50
UO-31 = assay: NCI60 five-dose screen, Renal Cancer; details: Homo sapiens; UO-31, Renal Cancer; five-dose screen; read-out: GI50
PC-3 = assay: NCI60 five-dose screen, Prostate Cancer; details: Homo sapiens; PC-3, Prostate Cancer; five-dose screen; read-out: GI50
DU-145 = assay: NCI60 five-dose screen, Prostate Cancer; details: Homo sapiens; DU-145, Prostate Cancer; five-dose screen; read-out: GI50
MCF7 = assay: NCI60 five-dose screen, Breast Cancer; details: Homo sapiens; MCF7, Breast Cancer; five-dose screen; read-out: GI50
MDA-MB231ATCC = assay: NCI60 five-dose screen, Breast Cancer; details: Homo sapiens, MDA-MB-231; MDA-MB231ATCC, Breast Cancer; five-dose screen; read-out: GI50
HS 578T = assay: NCI60 five-dose screen, Breast Cancer; details: Homo sapiens; HS 578T, Breast Cancer; five-dose screen; read-out: GI50
BT-549 = assay: NCI60 five-dose screen, Breast Cancer; details: Homo sapiens; BT-549, Breast Cancer; five-dose screen; read-out: GI50
MDA-MB-468 = assay: NCI60 five-dose screen, Breast Cancer; details: Homo sapiens; MDA-MB-468, Breast Cancer; five-dose screen; read-out: GI50
[1] = system: 60 human tumor cell lines (NCI60); assay: NCI60 five-dose screen, whole panel and sub-panel means
[2] = Homo sapiens, 60 cell, mean over all 60 cell lines, read-out: GI50 Mean
[3] = Homo sapiens, mean over Breast Cancer panel, read-out: GI50 Mean
[4] = Homo sapiens, mean over CNS Cancer panel, read-out: GI50 Mean
[5] = Homo sapiens, mean over Colon Cancer panel, read-out: GI50 Mean
[6] = Homo sapiens, mean over Leukemia panel, read-out: GI50 Mean
[7] = Homo sapiens, mean over Melanoma panel, read-out: GI50 Mean
[8] = Homo sapiens, mean over Non-small Cell Lung Cancer panel, read-out: GI50 Mean
[9] = Homo sapiens, mean over Ovarian Cancer panel, read-out: GI50 Mean
[10] = Homo sapiens, mean over Prostate Cancer panel, read-out: GI50 Mean
[11] = Homo sapiens, mean over Renal Cancer panel, read-out: GI50 Mean

CC[C@]12C=CCN3CC[C@@]4(c5ccc(OC)cc5N(C)[C@H]4[C@@](O)(C(=O)OC)[C@@H]1OC(=O)CCCN1CCN(c4ccc(C(F)(F)F)cc4)CC1)[C@@H]32 [Compound 22]
GI50 (CCRF-CEM): 1860 nM
GI50 (MOLT-4): 1950 nM
GI50 (RPMI-8226): 2040 nM
GI50 (SR): 1700 nM
GI50 (A549/ATCC): 2950 nM
GI50 (HOP-62): 3020 nM
GI50 (NCI-H322M): 3720 nM
GI50 (COLO 205): 1780 nM
GI50 (HCT-116): 1910 nM
GI50 (KM12): 2140 nM
GI50 (SW-620): 2950 nM
GI50 (SF-295): 1950 nM
GI50 (SF-539): 1780 nM
GI50 (SNB-19): 3550 nM
GI50 (M14): 1860 nM
GI50 (SK-MEL-2): 2190 nM
GI50 (SK-MEL-28): 1950 nM
GI50 (UACC-62): 3310 nM
GI50 (OVCAR-3): 2450 nM
GI50 (OVCAR-5): 4070 nM
GI50 (SK-OV-3): 3720 nM
GI50 (786–0): 2570 nM
GI50 (A498): 3720 nM
GI50 (ACHN): 3240 nM
GI50 (RXF 393): 1550 nM
GI50 (SN12C): 2630 nM
GI50 (UO-31): 1860 nM
GI50 (PC-3): 2450 nM
GI50 (DU-145): 2880 nM
GI50 (MCF7): 2000 nM
GI50 (MDA-MB231ATCC): 2820 nM
GI50 (HS 578T): 2820 nM
GI50 (BT-549): 3020 nM
GI50 (MDA-MB-468): 1380 nM
GI50 [1, 2]: < 4000 nM
GI50 [1, 3]: 2510 nM
GI50 [1, 4]: 2470 nM
GI50 [1, 5]: 2020 nM
GI50 [1, 6]: 1770 nM
GI50 [1, 7]: 1980 nM
GI50 [1, 8]: 2880 nM
GI50 [1, 9]: 3050 nM
GI50 [1, 10]: 2670 nM
GI50 [1, 11]: 2590 nM
GI50 ([1]; mean over all 60 cell lines, read-out: GI50 Mean): 2440 nM

CC[C@]12C=CCN3CC[C@@]4(c5ccc(OC)cc5N(C)[C@H]4[C@@](O)(C(=O)OC)[C@@H]1OC(=O)CCCN1CCN(Cc4ccc(C(F)(F)F)cc4)CC1)[C@@H]32 [Compound 23]
GI50 (CCRF-CEM): 2040 nM
GI50 (MOLT-4): 1150 nM
GI50 (RPMI-8226): 2000 nM
GI50 (SR): 1660 nM
GI50 (A549/ATCC): 1780 nM
GI50 (HOP-62): 1740 nM
GI50 (NCI-H322M): 2240 nM
GI50 (COLO 205): 1580 nM
GI50 (HCT-116): 1700 nM
GI50 (KM12): 1740 nM
GI50 (SW-620): 1550 nM
GI50 (SF-295): 1780 nM
GI50 (SF-539): 1580 nM
GI50 (SNB-19): 1580 nM
GI50 (M14): 1550 nM
GI50 (SK-MEL-2): 1780 nM
GI50 (SK-MEL-28): 1620 nM
GI50 (UACC-62): 1660 nM
GI50 (OVCAR-3): 1550 nM
GI50 (OVCAR-5): 1620 nM
GI50 (SK-OV-3): 2000 nM
GI50 (786–0): 1480 nM
GI50 (A498): 1620 nM
GI50 (ACHN): 1780 nM
GI50 (RXF 393): 1350 nM
GI50 (SN12C): 2090 nM
GI50 (UO-31): 1580 nM
GI50 (PC-3): 1580 nM
GI50 (DU-145): 1580 nM
GI50 (MCF7): 1550 nM
GI50 (MDA-MB231ATCC): 1740 nM
GI50 (HS 578T): 1510 nM
GI50 (BT-549): 1660 nM
GI50 (MDA-MB-468): 1000 nM
GI50 [1, 2]: 1650 nM
GI50 [1, 3]: 1530 nM
GI50 [1, 4]: 1570 nM
GI50 [1, 5]: 1640 nM
GI50 [1, 6]: 1710 nM
GI50 [1, 7]: 1620 nM
GI50 [1, 8]: 1800 nM
GI50 [1, 9]: 1770 nM
GI50 [1, 10]: 1580 nM
GI50 [1, 11]: 1630 nM
GI50 ([1]; Homo sapiens, on almost all cell lines, five-dose screen, read-out: GI50): < 2000 nM
